Measured values published in patent US12662479B2 (Foghorn Therapeutics Inc., priority 2020, dated 2026).

How the values were obtained:
HiBit-BRM fusion protein = target: T1, HiBit-BRM fusion protein (Homo sapiens, UniProt P51531); test: HiBiT-BRM cell-based degradation assay (Nano-Glo HiBiT Lytic Detection, 24 h); settings: HeLa cells expressing HiBiT-BRM; for DC50: read-out: BRM HiBit Degradation IC50; for BRM HiBit Degradation Maximum measured: top dose 30 μM
T1 construct: expressed in transfected cells
T1 sequence (P51531 whole entry, the tested form may be a part): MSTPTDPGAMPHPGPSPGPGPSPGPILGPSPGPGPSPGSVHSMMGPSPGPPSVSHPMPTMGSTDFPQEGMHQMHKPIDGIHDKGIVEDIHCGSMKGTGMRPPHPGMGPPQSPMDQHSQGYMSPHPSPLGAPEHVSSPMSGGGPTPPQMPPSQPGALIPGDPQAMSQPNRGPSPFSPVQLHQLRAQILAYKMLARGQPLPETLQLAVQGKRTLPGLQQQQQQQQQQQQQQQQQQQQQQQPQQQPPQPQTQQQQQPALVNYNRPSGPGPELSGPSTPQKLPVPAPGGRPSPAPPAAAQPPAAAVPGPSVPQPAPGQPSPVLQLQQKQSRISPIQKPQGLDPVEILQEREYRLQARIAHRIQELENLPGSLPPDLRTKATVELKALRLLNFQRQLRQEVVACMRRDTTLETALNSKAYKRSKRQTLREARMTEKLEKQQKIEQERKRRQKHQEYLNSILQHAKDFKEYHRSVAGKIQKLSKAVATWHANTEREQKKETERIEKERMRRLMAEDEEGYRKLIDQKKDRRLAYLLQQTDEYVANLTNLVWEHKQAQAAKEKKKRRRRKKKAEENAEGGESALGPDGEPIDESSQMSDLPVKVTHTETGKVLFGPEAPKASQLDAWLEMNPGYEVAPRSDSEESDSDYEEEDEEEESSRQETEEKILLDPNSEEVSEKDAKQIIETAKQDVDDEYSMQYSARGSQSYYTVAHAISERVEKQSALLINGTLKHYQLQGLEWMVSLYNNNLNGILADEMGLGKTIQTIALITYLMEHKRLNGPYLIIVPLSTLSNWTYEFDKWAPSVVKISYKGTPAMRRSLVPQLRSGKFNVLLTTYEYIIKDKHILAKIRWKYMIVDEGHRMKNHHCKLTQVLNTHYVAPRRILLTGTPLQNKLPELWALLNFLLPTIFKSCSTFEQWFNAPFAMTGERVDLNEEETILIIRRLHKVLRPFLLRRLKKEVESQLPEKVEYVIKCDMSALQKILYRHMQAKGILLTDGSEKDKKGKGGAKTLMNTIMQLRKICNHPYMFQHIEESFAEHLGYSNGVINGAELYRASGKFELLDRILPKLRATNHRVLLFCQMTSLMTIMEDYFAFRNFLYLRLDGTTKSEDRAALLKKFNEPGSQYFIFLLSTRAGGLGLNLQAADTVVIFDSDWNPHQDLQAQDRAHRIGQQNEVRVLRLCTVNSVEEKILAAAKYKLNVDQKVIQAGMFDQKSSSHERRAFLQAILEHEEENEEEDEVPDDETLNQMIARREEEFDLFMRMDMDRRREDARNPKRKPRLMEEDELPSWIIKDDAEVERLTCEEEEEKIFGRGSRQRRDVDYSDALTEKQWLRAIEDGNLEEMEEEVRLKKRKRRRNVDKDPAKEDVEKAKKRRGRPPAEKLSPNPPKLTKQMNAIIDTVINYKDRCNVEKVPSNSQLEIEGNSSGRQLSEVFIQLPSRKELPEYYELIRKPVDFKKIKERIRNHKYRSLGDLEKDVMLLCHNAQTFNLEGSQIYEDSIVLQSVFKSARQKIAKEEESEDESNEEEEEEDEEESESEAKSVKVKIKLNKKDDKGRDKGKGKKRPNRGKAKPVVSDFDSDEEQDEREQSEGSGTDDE
Outline: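 Luminescence from reconstituted NanoBiT luciferase in lysed HeLa HiBiT-BRM cells served as the measure of remaining BRM after 24 h treatment. Compounds were tested from 30 μM final downward in 3-fold steps. DMSO and 2 μM of a standard BRM/BRG1 degrader defined the scale limits.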

[1] = target: T2, HiBit-BRG1 fusion protein (Homo sapiens, UniProt P51532); test: HiBiT-BRG1 cell-based degradation assay (Nano-Glo HiBiT Lytic Detection, 24 h); settings: HeLa cells expressing HiBit-BRG1 and LgBit; for DC50: read-out: BRG1 HiBit Degradation IC50; for Dmax: HeLa, top dose 30 μM, read-out: BRG1 HiBit Degradation Maximum measured
T2 construct: expressed in transfected cells
T2 sequence (P51532 whole entry, the tested form may be a part): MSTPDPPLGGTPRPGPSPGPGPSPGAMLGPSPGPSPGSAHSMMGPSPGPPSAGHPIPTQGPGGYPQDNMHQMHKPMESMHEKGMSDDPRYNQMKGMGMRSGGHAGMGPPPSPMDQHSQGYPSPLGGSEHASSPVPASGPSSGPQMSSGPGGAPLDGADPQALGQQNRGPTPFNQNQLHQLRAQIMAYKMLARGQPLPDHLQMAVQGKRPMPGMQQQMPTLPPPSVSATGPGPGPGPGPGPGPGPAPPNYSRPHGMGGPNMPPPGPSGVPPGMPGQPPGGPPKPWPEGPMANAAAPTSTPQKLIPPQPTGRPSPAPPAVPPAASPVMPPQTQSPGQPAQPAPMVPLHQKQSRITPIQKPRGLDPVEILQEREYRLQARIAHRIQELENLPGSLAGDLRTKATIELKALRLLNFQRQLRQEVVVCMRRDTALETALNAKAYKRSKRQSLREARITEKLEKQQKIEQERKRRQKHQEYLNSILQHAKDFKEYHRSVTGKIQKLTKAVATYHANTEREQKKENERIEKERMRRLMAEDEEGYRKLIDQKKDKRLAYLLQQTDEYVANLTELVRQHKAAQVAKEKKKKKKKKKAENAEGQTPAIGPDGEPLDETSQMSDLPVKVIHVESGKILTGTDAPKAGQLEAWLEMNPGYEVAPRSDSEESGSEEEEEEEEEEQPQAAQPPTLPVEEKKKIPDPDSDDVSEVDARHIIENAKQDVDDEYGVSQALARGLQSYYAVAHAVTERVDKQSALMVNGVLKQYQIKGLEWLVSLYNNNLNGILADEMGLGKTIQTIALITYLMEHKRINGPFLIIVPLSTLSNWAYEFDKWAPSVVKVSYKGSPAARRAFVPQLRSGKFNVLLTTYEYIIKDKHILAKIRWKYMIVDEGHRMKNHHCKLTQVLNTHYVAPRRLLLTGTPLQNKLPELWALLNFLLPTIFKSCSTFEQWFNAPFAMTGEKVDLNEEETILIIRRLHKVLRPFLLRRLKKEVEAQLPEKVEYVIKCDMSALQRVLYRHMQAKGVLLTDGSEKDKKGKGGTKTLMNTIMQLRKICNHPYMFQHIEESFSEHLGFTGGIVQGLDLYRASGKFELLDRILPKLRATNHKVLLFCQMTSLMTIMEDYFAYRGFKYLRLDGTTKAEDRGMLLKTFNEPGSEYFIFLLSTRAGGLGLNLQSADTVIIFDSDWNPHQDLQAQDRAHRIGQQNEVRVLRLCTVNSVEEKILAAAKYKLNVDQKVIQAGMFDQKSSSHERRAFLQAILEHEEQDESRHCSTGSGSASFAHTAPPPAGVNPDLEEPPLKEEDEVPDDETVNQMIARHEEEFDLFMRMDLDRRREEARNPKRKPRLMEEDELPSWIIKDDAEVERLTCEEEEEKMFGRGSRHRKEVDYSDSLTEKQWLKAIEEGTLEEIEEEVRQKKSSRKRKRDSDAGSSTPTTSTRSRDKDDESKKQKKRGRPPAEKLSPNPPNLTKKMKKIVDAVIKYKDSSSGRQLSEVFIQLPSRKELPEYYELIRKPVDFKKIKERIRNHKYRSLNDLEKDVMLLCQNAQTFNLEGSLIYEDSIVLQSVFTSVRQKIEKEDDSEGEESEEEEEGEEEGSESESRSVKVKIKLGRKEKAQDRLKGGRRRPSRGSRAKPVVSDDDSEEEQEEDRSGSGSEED
Outline: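 Stable HeLa line expressing HiBiT-BRG1 and LgBiT, seeded at 5000 cells/well; luminescence read after lytic Nano-Glo HiBiT reagent and 10 min shaking at RT. % degradation normalised between DMSO (high control) and 2 μM reference BRM/BRG1 degrader (low control).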

DC50 (HiBit-BRM fusion protein) [µM] | BRM HiBit Degradation Maximum measured (HiBit-BRM fusion protein) | DC50 [1] [µM] | Dmax [1] [%] | Structure (SMILES)
> 10 | C (‘C’ = Maximum degradation <50%) | > 10 | < 50 | Cc1cc(C(=O)NCC(=O)Nc2nc(-c3cccc(-c4ccnc(N(C)CC(=O)NCCOCCOCCNc5cccc6c5C(=O)N(C5CCC(=O)NC5=O)C6=O)c4)c3)cs2)cn1S(C)(=O)=O (stereo not shown) [Compound 122, N-(2-((4-(3-(2-((2-((2-(2-(2-((2-(2,6-dioxopiperidin-3-yl)-1,3-dioxoisoindolin-4-yl)amino)ethoxy)ethoxy)ethyl)amino)-2-oxoethyl)(methyl)amino)pyridin-4-yl)phenyl)thiazol-2-yl)amino)-2-oxoethyl)-5-methyl-1-(methylsulfonyl)-1H-pyrrole-3-carboxamide]
> 10 | C (‘C’ = Maximum degradation <50%) | > 10 | < 50 | CS(=O)(=O)n1ccc(C(=O)NCC(=O)Nc2nc(-c3cccc(-c4ccnc(C5(C(=O)NCCOCCOCCNC(=O)COc6cccc7c6C(=O)N(C6CCC(=O)NC6=O)C7=O)CC5)c4)c3)cs2)c1 (stereo not shown) [Compound 128]
> 10 | C (‘C’ = Maximum degradation <50%) | > 10 | < 50 | CN1C(=O)CCC(N2C(=O)c3cccc(OCC(=O)NCCCCCCCCNC(=O)C4(c5cc(-c6cccc(-c7csc(NC(=O)CNC(=O)c8ccn(S(C)(=O)=O)c8)n7)c6)ccn5)CC4)c3C2=O)C1=O (stereo not shown) [Compound 129, N-[2-[[4-[3-[2-[1-[8-[[2-[2-(1-methyl-2,6-dioxo-3-piperidyl)-1,3-dioxo-isoindolin-4-yl]oxyacetyl]amino]octylcarbamoyl]cyclopropyl]-4-pyridyl]phenyl]thiazol-2-yl]amino]-2-oxo-ethyl]-1-methylsulfonyl-pyrrole-3-carboxamide]
> 10 | C (‘C’ = Maximum degradation <50%) | > 10 | < 50 | Cc1cc(C(=O)NCC(=O)Nc2nc(-c3cccc(-c4ccnc(N(C)CC(=O)NCCCCCCCCNC(=O)COc5cccc6c5C(=O)N(C5CCC(=O)NC5=O)C6=O)c4)c3)cs2)cn1S(C)(=O)=O (stereo not shown) [Compound 131, N-(2-((4-(3-(2-((2-((8-(2-((2-(2,6-dioxopiperidin-3-yl)-1,3-dioxoisoindolin-4-yl)oxy)acetamido)octyl)amino)-2-oxoethyl)(methyl)amino)pyridin-4-yl)phenyl)thiazol-2-yl)amino)-2-oxoethyl)-5-methyl-1-(methylsulfonyl)-1H-pyrrole-3-carboxamide]
> 10 | C (‘C’ = Maximum degradation <50%) | > 10 | < 50 | CS(=O)(=O)n1ccc(C(=O)NCC(=O)Nc2nc(-c3cccc(-c4ccnc(C5(C(=O)N6CCN(c7ccc8c(c7)C(=O)N(C7CCC(=O)NC7=O)C8=O)CC6)CC5)c4)c3)cs2)c1 (stereo not shown) [Compound 132, N-(4-[3-[2-(1-[4-[2-(2,6-dioxopiperidin-3-yl)-1,3-dioxoisoindol-5-yl]piperazine-1-carbonyl]cyclopropyl)pyridin-4-yl]phenyl]-1,3-thiazol-2-yl)-2-[(1-methanesulfonylpyrrol-3-yl)formamido]acetamide]

Further lines, the compound ahead of its results:

Structure (SMILES) | DC50 (HiBit-BRM fusion protein) [µM] | BRM HiBit Degradation Maximum measured (HiBit-BRM fusion protein) | DC50 [1] [µM] | Dmax [1] [%]
Cc1ncsc1-c1ccc(CNC(=O)[C@@H]2C[C@@H](O)CN2C(=O)[C@@H](NC(=O)CCCCCCCCCCCCCCC(=O)NCc2cccc(-c3cccc(-c4csc(NC(=O)CNC(=O)c5ccn(S(C)(=O)=O)c5)n4)c3)c2)C(C)(C)C)cc1 [Compound 120, N1-((S)-1-((2S,4R)-4-hydroxy-2-((4-(4-methylthiazol-5-yl)benzyl)carbamoyl)pyrrolidin-1-yl)-3,3-dimethyl-1-oxobutan-2-yl)-N16-((3′-(2-(2-(1-(methylsulfonyl)-1H-pyrrole-3-carboxamido)acetamido)thiazol-4-yl)-[1,1′-biphenyl]-3-yl)methyl)hexadecanediamide] | > 10 | C (‘C’ = Maximum degradation <50%) | > 10 | < 50
Cc1ncsc1-c1ccc(CNC(=O)[C@@H]2C[C@@H](O)CN2C(=O)[C@@H](NC(=O)COCCOCCOCCOCC(=O)NCc2cccc(-c3cccc(-c4csc(NC(=O)CNC(=O)c5ccn(S(C)(=O)=O)c5)n4)c3)c2)C(C)(C)C)cc1 [Compound 121, N1-((S)-1-((2S,4R)-4-hydroxy-2-((4-(4-methylthiazol-5-yl)benzyl)carbamoyl)pyrrolidin-1-yl)-3,3-dimethyl-1-oxobutan-2-yl)-N14-((3′-(2-(2-(1-(methylsulfonyl)-1H-pyrrole-3-carboxamido)acetamido)thiazol-4-yl)-[1,1′-biphenyl]-3-yl)methyl)-3,6,9,12-tetraoxatetradecane-1,14-diamide] | 1 to 10 | B (‘B’ = Maximum degradation ≥50% and ≤75%) | 1 to 10 | 50 to 75
Cc1c(C(=O)NCC(=O)Nc2nc(-c3cccc(-c4ccnc(N(C)CC(=O)N5CCC(C6CCN(C(=O)COc7cccc8c7C(=O)N(C7CCC(=O)NC7=O)C8=O)CC6)CC5)c4)c3)cs2)cn(S(C)(=O)=O)c1C (stereo not shown) [Compound 123, N-[2-[[4-[3-[2-[[2-[4-[1-[2-[2-(2,6-dioxo-3-piperidyl)-1,3-dioxo-isoindolin-4-yl]oxyacetyl]-4-piperidyl]-1-piperidyl]-2-oxo-ethyl]-methyl-amino]-4-pyridyl]phenyl]thiazol-2-yl]amino]-2-oxo-ethyl]-4,5-dimethyl-1-methylsulfonyl-pyrrole-3-carboxamide] | > 10 | C (‘C’ = Maximum degradation <50%) | > 10 | < 50
Cc1ncsc1-c1ccc(CNC(=O)[C@@H]2C[C@@H](O)CN2C(=O)[C@@H](NC(=O)CCCCCCCCCCCCCCCC(=O)NCc2cccc(-c3cccc(-c4csc(NC(=O)CNC(=O)c5ccn(S(C)(=O)=O)c5)n4)c3)c2)C(C)(C)C)cc1 [Compound 124, N1-((S)-1-((2S,4R)-4-hydroxy-2-((4-(4-methylthiazol-5-yl)benzyl)carbamoyl)pyrrolidin-1-yl)-3,3-dimethyl-1-oxobutan-2-yl)-N17-((3′-(2-(2-(1-(methylsulfonyl)-1H-pyrrole-3-carboxamido)acetamido)thiazol-4-yl)-[1,1′-biphenyl]-3-yl)methyl)heptadecanediamide] | > 10 | C (‘C’ = Maximum degradation <50%) | > 10 | < 50
Cc1cc(C(=O)NCC(=O)Nc2nc(-c3cccc(-c4ccnc(N(C)CC(=O)NCCCCCNc5cccc6c5C(=O)N(C5CCC(=O)NC5=O)C6=O)c4)c3)cs2)cn1S(C)(=O)=O (stereo not shown) [Compound 125, N-(2-((4-(3-(2-((2-((5-((2-(2,6-dioxopiperidin-3-yl)-1,3-dioxoisoindolin-4-yl)amino)pentyl)amino)-2-oxoethyl)(methyl)amino)pyridin-4-yl)phenyl)thiazol-2-yl)amino)-2-oxoethyl)-5-methyl-1-(methylsulfonyl)-1H-pyrrole-3-carboxamide] | > 10 | C (‘C’ = Maximum degradation <50%) | > 10 | < 50
Cc1ncsc1-c1ccc(CNC(=O)[C@@H]2C[C@@H](O)CN2C(=O)[C@@H](NC(=O)CCCCCCCCCCCCCC(=O)NCc2cccc(-c3cccc(-c4csc(NC(=O)CNC(=O)c5ccn(S(C)(=O)=O)c5)n4)c3)c2)C(C)(C)C)cc1 [Compound 126, N′-[(1S)-1-[(2S,4R)-4-hydroxy-2-[[4-(4-methylthiazol-5-yl)phenyl]methylcarbamoyl]pyrrolidine-1-carbonyl]-2,2-dimethyl-propyl]-N-[[3-[3-[2-[[2-[(1-methylsulfonylpyrrole-3-carbonyl)amino]acetyl]amino]thiazol-4-yl]phenyl]phenyl]methyl]pentadecanediamide] | 0.1 to 1 | B (‘B’ = Maximum degradation ≥50% and ≤75%) | 0.1 to 1 | 50 to 75
Cc1cc(C(=O)NCC(=O)Nc2nc(-c3cccc(-c4ccnc(N(C)CC(=O)N5CCC(C6CCN(C(=O)COc7cccc8c7C(=O)N(C7CCC(=O)NC7=O)C8=O)CC6)CC5)c4)c3)cs2)cn1S(C)(=O)=O (stereo not shown) [Compound 130, N-[2-[[4-[3-[2-[[2-[4-[1-[2-[2-(2,6-dioxo-3-piperidyl)-1,3-dioxo-isoindolin-4-yl]oxyacetyl]-4-piperidyl]-1-piperidyl]-2-oxo-ethyl]-methyl-amino]-4-pyridyl]phenyl]thiazol-2-yl]amino]-2-oxo-ethyl]-5-methyl-1-methylsulfonyl-pyrrole-3-carboxamide] | > 10 | C (‘C’ = Maximum degradation <50%) | > 10 | < 50
CS(=O)(=O)n1ccc(C(=O)NCC(=O)Nc2nc(-c3cccc(-c4ccnc(C5(C(=O)NCCNc6ccc7c(c6)C(=O)N(C6CCC(=O)NC6=O)C7=O)CC5)c4)c3)cs2)c1 (stereo not shown) [Compound 133, N-(2-[[2-(2,6-dioxopiperidin-3-yl)-1,3-dioxoisoindol-5-yl]amino]ethyl)-1-[4-[3-(2-[2-[(1-methanesulfonylpyrrol-3-yl)formamido]acetamido]-1,3-thiazol-4-yl)phenyl]pyridin-2-yl]cyclopropane-1-carboxamide] | 0.1 to 1 | B (‘B’ = Maximum degradation ≥50% and ≤75%) | < 0.1 | > 75
